Assay results from ChEMBL document CHEMBL4819133, “Exploiting the HSP60/10 chaperonin system as a chemotherapeutic target for colorectal cancer” (Bioorg Med Chem, 2021).
Active and inactive are the calls of the source. The rule behind the calls is not given here.

Assays:
[1] = Cytotoxicity against human FHs74Int cells assessed as reduction in cell viability measured after 48 hrs by AlamarBlue assay; format: cell-based
[2] = Cytotoxicity against human THLE-3 cells assessed as reduction in cell viability measured after 48 hrs by AlamarBlue assay; format: cell-based; settings: for CC50 at 48 h: THLE-3 cells; for CC50: thle-3, 48 h
HT-29 [3] = experiment: Inhibition of clonogenicity in human HT-29 cells assessed as reduction in colony formation at 50 uM incubated for 72 hrs followed by culturing in fresh compound-free medium for 7 days by crystal violet staining based analysis; format: functional
HT-29 [4] = experiment: Cytotoxicity against human HT-29 cells assessed as reduction in cell viability measured after 48 hrs by AlamarBlue assay; format: functional, cell-based; settings: HT-29, 48 h
HCT-116 [5] = experiment: Induction of apoptosis in human HCT-116 cells at 100 uM incubated for 48 hrs by AnnexinV-FITC/PI staining based flow cytometry; format: functional, cell-based
HSP60/HSP10 = HSP60/HSP10 (Homo sapiens, UniProt P10809); experiment: Inhibition of human mitochondrial HSP60/10-mediated refolding of the denatured malate dehydrogenase; format: mitochondria, Mitochondria
HCT-116 [6] = experiment: Inhibition of clonogenicity in human HCT-116 cells assessed as reduction in colony formation at 50 uM incubated for 72 hrs followed by culturing in fresh compound-free medium for 7 days by crystal violet staining based analysis; format: functional
HCT-116 [7] = experiment: Inhibition of cell migration in human HCT-116 cells measured at 72 hrs by scratch wound healing assay based phase contrast microscopy; format: functional; settings: HCT-116, 72 h
HCT-116 [8] = experiment: Inhibition of cell migration in human HCT-116 cells at 10 uM measured at >=20 hrs by scratch wound healing assay based phase contrast microscopy; format: functional; settings: time hrs >=20
DLD-1 [9] = experiment: Inhibition of clonogenicity in human DLD-1 cells assessed as reduction in number of colony formation incubated for 72 hrs followed by culturing in fresh compound-free medium for 7 days by crystal violet staining based analysis; format: functional, cell-based
[10] = (§1) Cytotoxicity against human HEK293 cells assessed as reduction in cell viability measured after 48 hrs by AlamarBlue assay; format: cell-based; settings: HEK293 cells
FHC = experiment: Cytotoxicity against human FHC cells assessed as reduction in cell viability measured after 48 hrs by AlamarBlue assay; format: cell-based
HCT-116 [11] = experiment: Induction of cell death in human HCT-116 cells assessed as loss of cell monolayer integrity and cytoplasm extrusion at 100 uM measured for 72 hrs by phase contrast microscopy; format: functional, cell-based
DLD-1 [12] = experiment: Cytotoxicity against human DLD-1 cells assessed as reduction in cell viability measured after 48 hrs by AlamarBlue assay; format: functional, cell-based; settings: DLD-1, 48 h
HT-29 [13] = experiment: Inhibition of clonogenicity in human HT-29 cells assessed as reduction in number of colony formation incubated for 72 hrs followed by culturing in fresh compound-free medium for 7 days by crystal violet staining based analysis; format: functional, cell-based
HCT-116 [14] = experiment: Inhibition of clonogenicity in human HCT-116 cells assessed as reduction in size of colony incubated for 72 hrs followed by culturing in fresh compound-free medium for 7 days by crystal violet staining based analysis; format: functional, cell-based
E. coli GroEL/ES [15] = target: T1, E. coli GroEL/ES (Escherichia coli, UniProt P0A6F5); experiment: Inhibition of Escherichia coli GroEL/ES-mediated refolding of the denatured rhodanese; format: protein-complex assay
DLD-1 [16] = experiment: Inhibition of clonogenicity in human DLD-1 cells assessed as reduction in colony formation at 50 uM incubated for 72 hrs followed by culturing in fresh compound-free medium for 7 days by crystal violet staining based analysis; format: functional
HCT-116 [17] = experiment: Inhibition of clonogenicity in human HCT-116 cells assessed as reduction in number of colony formation incubated for 72 hrs followed by culturing in fresh compound-free medium for 7 days by crystal violet staining based analysis; format: functional, cell-based
HCT-116 [18] = experiment: Cytotoxicity against human HCT-116 cells assessed as reduction in cell viability measured after 48 hrs by AlamarBlue assay; format: functional, cell-based; settings: HCT-116, 48 h
[19] = Inhibition of refolded MDH (unknown origin)-mediated oxidation of NADPH in presence of mesoxalic acid treated with compound after refolding of the denatured enzyme; set-up: species or system Homo sapiens
HT-29 [20] = experiment: Inhibition of clonogenicity in human HT-29 cells assessed as reduction in size of colony incubated for 72 hrs followed by culturing in fresh compound-free medium for 7 days by crystal violet staining based analysis; format: functional, cell-based
DLD-1 [21] = experiment: Inhibition of clonogenicity in human DLD-1 cells assessed as reduction in size of colony incubated for 72 hrs followed by culturing in fresh compound-free medium for 7 days by crystal violet staining based analysis; format: functional, cell-based
E. coli GroEL/ES [22] = target: T1, E. coli GroEL/ES; experiment: Inhibition of Escherichia coli GroEL/ES-mediated refolding of the denatured malate dehydrogenase; format: protein-complex assay
HEK293 = experiment: as §1; format: cell-based; settings: hek293, 48 h
HCT-116 [23] = experiment: Inhibition of cell migration in human HCT-116 cells at 0.14 to 100 uM measured for 72 hrs by scratch wound healing assay based phase contrast microscopy; format: functional; settings: dose 0.14-100 µM
HCT-116 [24] = experiment: Induction of apoptosis in human HCT-116 cells assessed as compact cell monolayer at 100 uM measured for 72 hrs by phase contrast microscopy; format: functional, cell-based
[25] = target: T2, Thiosulfate sulfurtransferase (Homo sapiens, UniProt Q16762); experiment: Inhibition of refolded Rhodanese (unknown origin)-mediated conversion of cyanide to thiocyanate treated with compound after refolding of the denatured enzyme
T2 sequence (Q16762 whole entry): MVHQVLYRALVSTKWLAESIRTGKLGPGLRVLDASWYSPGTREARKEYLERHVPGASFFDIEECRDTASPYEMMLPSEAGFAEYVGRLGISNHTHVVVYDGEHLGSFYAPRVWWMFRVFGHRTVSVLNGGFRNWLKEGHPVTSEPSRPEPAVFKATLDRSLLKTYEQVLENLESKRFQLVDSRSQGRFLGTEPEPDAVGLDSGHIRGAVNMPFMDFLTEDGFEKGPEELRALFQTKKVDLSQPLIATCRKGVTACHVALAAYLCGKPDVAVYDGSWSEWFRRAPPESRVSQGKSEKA

HCT-116 [26] = experiment: Cytostatic activity in human HCT-116 cells assessed as viable cells at 100 uM incubated for 48 hrs by AnnexinV/PI staining based flow cytometry; format: functional, cell-based

T1 sequence (P0A6F5 whole entry, looked up): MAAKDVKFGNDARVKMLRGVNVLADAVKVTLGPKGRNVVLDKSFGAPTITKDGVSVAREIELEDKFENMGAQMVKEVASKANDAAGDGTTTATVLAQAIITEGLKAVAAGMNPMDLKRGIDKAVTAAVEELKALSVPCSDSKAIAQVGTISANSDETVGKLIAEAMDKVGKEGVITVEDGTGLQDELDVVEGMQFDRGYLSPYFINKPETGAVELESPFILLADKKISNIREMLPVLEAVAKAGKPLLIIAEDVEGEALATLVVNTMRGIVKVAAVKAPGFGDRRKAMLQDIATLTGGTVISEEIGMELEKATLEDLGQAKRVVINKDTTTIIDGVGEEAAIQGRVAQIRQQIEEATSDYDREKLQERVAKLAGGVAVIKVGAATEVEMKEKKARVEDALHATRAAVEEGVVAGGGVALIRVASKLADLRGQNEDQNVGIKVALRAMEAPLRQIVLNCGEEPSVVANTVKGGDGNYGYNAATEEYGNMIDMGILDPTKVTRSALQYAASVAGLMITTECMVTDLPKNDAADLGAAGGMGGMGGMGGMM
HSP60/HSP10, sequence (P10809 whole entry): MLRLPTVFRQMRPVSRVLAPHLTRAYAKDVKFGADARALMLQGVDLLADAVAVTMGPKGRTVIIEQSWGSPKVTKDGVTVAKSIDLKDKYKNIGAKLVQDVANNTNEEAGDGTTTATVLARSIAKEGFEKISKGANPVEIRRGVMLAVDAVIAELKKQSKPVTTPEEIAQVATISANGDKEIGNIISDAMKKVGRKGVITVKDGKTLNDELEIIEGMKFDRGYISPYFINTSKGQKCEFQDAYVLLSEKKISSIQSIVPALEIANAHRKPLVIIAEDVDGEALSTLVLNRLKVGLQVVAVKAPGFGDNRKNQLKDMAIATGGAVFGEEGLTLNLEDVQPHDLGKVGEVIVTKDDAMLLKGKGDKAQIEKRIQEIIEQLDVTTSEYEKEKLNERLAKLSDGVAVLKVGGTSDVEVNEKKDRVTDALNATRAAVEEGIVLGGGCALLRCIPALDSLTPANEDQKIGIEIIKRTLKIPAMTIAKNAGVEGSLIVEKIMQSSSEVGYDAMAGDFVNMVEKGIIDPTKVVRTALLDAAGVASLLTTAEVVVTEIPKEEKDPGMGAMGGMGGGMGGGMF
HSP60/HSP10, sequence (P61604 whole entry, further chain): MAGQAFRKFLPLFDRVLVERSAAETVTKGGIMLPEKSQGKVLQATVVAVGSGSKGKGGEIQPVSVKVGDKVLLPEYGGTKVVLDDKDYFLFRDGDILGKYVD

Compound	CC50 [1] [µM]	CC50 at 48 h [2] [µM]	inhibition at 50 µM (HT-29 [3]) [%]	EC50 (HT-29 [4]) [µM]	Activity (HCT-116 [5])	IC50 (HSP60/HSP10) [µM]	inhibition at 50 µM (HCT-116 [6]) [%]	EC50 (HCT-116 [7]) [µM]	EC50 (DLD-1 [9]) [µM]	CC50 (FHC) [µM]	EC50 (DLD-1 [12]) [µM]	EC50 (HT-29 [13]) [µM]	EC50 (HCT-116 [14]) [µM]	IC50 (E. coli GroEL/ES [15]) [µM]	EC50 (HCT-116 [17]) [µM]	EC50 (HCT-116 [18]) [µM]	IC50 [19] [µM]	EC50 (HT-29 [20]) [µM]	EC50 (DLD-1 [21]) [µM]	IC50 (E. coli GroEL/ES [22]) [µM]	other results
O=C(Nc1ccc(Sc2nc3ccccc3s2)c(Cl)c1)c1cccc(Br)c1O	> 100	18	100	20	Active	7.7	100	2	21	> 100	22	32	9.1	5.9	17	12	> 62.5	12	11	10	inhibition (HCT-116 [8]): Active; inhibition (DLD-1 [9]): Dose-Dependent Effect; CC50 at 48 h [10]: 68 µM; Activity (HCT-116 [11]): Active; inhibition (HT-29 [13]): Dose-Dependent Effect; inhibition (HCT-116 [14]): Dose-Dependent Effect; inhibition at 50 µM (DLD-1 [16]): 100%; inhibition (HCT-116 [17]): Dose-Dependent Effect; inhibition (HT-29 [20]): Dose-Dependent Effect; inhibition (DLD-1 [21]): Dose-Dependent Effect
COc1c(Br)cccc1C(=O)Nc1ccc(Sc2nc3ccccc3s2)c(Cl)c1	> 100	14	100	11	Active	–	100	5.5	11	> 100	10	27	12	16	11	8.5	> 62.5	13	10	37	inhibition (HCT-116 [8]): Active; inhibition (DLD-1 [9]): Dose-Dependent Effect; CC50 at 48 h [10]: 40 µM; Activity (HCT-116 [11]): Active; inhibition (HT-29 [13]): Dose-Dependent Effect; inhibition (HCT-116 [14]): Dose-Dependent Effect; inhibition at 50 µM (DLD-1 [16]): 100%; inhibition (HCT-116 [17]): Dose-Dependent Effect; inhibition (HT-29 [20]): Dose-Dependent Effect; inhibition (DLD-1 [21]): Dose-Dependent Effect
COc1ccc(S(=O)(=O)Nc2ccc3oc(-c4ccc(NC(=O)c5cccc(C)c5[N+](=O)[O-])cc4)nc3c2)cc1	> 100	–	–	–	–	72	–	2.3	> 50	> 100	1.5	26	2.6	28	19	4.4	> 62.5	2	1.6	33	CC50 [2]: 22 µM; inhibition (HT-29 [3]): Active; inhibition (HCT-116 [6]): Active; CC50 (HEK293): 12 µM; inhibition (HCT-116 [23]): Active; Activity (HCT-116 [24]): inactive; inhibition (DLD-1 [16]): Active; IC50 [25]: > 100 µM; Activity (HCT-116 [26]): Active
Cc1ccc(S(=O)(=O)Nc2ccc(-c3nc4cc(NS(=O)(=O)c5ccc(C)cc5)ccc4o3)cc2)cc1	74	15	100	11	Active	> 100	100	9	16	51	13	13	15	30	14	5.9	> 62.5	10	12	27	inhibition (HCT-116 [8]): Active; inhibition (DLD-1 [9]): Dose-Dependent Effect; CC50 at 48 h [10]: 32 µM; Activity (HCT-116 [11]): Active; inhibition (HT-29 [13]): Dose-Dependent Effect; inhibition (HCT-116 [14]): Dose-Dependent Effect; inhibition at 50 µM (DLD-1 [16]): 100%; inhibition (HCT-116 [17]): Dose-Dependent Effect; inhibition (HT-29 [20]): Dose-Dependent Effect; IC50 [25]: > 100 µM; inhibition (DLD-1 [21]): Dose-Dependent Effect
COc1ccc(S(=O)(=O)Nc2ccc3oc(-c4ccc(NC(=O)c5ccc(Cl)s5)cc4)nc3c2)cc1	> 100	–	–	1.9	–	61	–	5.7	> 50	> 100	4.6	2.3	1.1	15	2.7	5.4	> 62.5	0.71	11	18	CC50 [2]: 57 µM; inhibition (HT-29 [3]): Active; inhibition (HCT-116 [6]): Active; CC50 (HEK293): 15 µM; inhibition (HCT-116 [23]): Active; Activity (HCT-116 [24]): inactive; inhibition (DLD-1 [16]): Active; IC50 [25]: > 100 µM; Activity (HCT-116 [26]): Active
